Measurements reported in ChEMBL document CHEMBL1153781, “Prediction of volume of distribution values in human using immobilized artificial membrane partitioning coefficients, the fraction of compound ionized and plasma protein binding data” (Eur J Med Chem, 2009).

Assays:
Plasma = details: human
Description: Fraction unbound in human plasma

[1] = Dissociation constant, pKa of the compound; format: physicochemical
clinical = details: human, in vivo

O=C(O)c1cc(=O)c2c(OCC(O)COc3cccc4oc(C(=O)O)cc(=O)c34)cccc2o1 [CROMOLYN]
fu (Plasma): 0
pKa [1]: 1.9
Vd (clinical): 0.32 L/kg

CCCC(C)C1(CC)C(=O)NC(=O)NC1=O (stereo not given) [PENTOBARBITAL]
fu (Plasma): 0.45
pKa [1]: 8.1
Vd (clinical): 1 L/kg

Nc1cc(N2CCCCC2)nc(N)[n+]1[O-] [MINOXIDIL]
fu (Plasma): 1
pKa [1]: 4.6
Vd (clinical): 3 L/kg

CO/N=C(\C(=O)N[C@@H]1C(=O)N2C(C(=O)O)=C(COC(C)=O)CS[C@H]12)c1csc(N)n1 [CEFOTAXIME]
fu (Plasma): 0.6
pKa [1]: 3.75
Vd (clinical): 0.28 L/kg

COC(=O)CCc1ccc(OCC(O)CNC(C)C)cc1 (stereo not given) [ESMOLOL]
fu (Plasma): 0.45
Vd (clinical): 1.9 L/kg

CCCOC(C(=O)OC1CCN(C)CC1)(c1ccccc1)c1ccccc1 [PROPIVERINE]
fu (Plasma): 0.075
pKa [1]: 6.65
Vd (clinical): 1.9 L/kg

CCCCN1CCCCC1C(=O)Nc1c(C)cccc1C (stereo not given) [BUPIVACAINE]
fu (Plasma): 0.044
pKa [1]: 8.16
Vd (clinical): 0.7 L/kg

CCn1cc(C(=O)O)c(=O)c2cc(F)c(N3CCNCC3)nc21 [ENOXACIN]
fu (Plasma): 0.485
pKa [1]: 6.3
Vd (clinical): 1.96 L/kg

CC1(C)S[C@@H]2[C@H](NC(=O)[C@H](N)c3ccc(O)cc3)C(=O)N2[C@H]1C(=O)O [AMOXICILLIN]
fu (Plasma): 0.82
pKa [1]: 2.4
Vd (clinical): 0.85 L/kg

CN1CCOC(c2ccccc2)c2ccccc2C1 (stereo not given) [NEFOPAM]
fu (Plasma): 0.27
pKa [1]: 9.3
Vd (clinical): 7.23 L/kg
